# In BindingDB's records for patent US20240174647 (Neuron23, 2024):
# pIC50: −log10 of the molar value.
# Molecular target: Leucine-rich repeat serine/threonine-protein kinase 2 (Homo sapiens, UniProt Q5S007)
# Test: Biochemical Assay
# Method: The protocol for basic TR-FRET LanthaScreen Tb Kinase Activity Assay inhibitor studies were as follows. LanthaScreen Kinase Activity Assays (ThermoFisher/USA) to evaluate inhibitors were performed by addition of 100 nL of test compound in corresponding DMSO dilutions/5 μL of kinase/fluorescein-ERM(LRRKtide) peptide mixture, 5 μL of ATP into 384 well small volume plates. After incubation for 120 minutes at room temperature, the detection reagents containing Tb-anti-pLRRKtide antibody were added to monitor phosphrylation level of peptide. Then, after 60 min minutes incubation at room temperature plates were read in Envision. Data analysis of emission ratios was according to LanthaScreen Tb Kinase Activity Assay protocol.Kinase and assay components were adjusted to final concentrations according to the kit protocol. For LRRK2: 2 nM wt human LRRK2, catalytic site, catalytic site (ThermoFisher/USA), 400 nM peptide, 38 μM ATP in 1× Kinase Buffer A.Basic protocol for TR-FRET LanthaScreen Tb Kinase Activity Assay inhibitor studies involved two steps:Enzymatic step: Addition of 100 nL of test compound in corresponding DMSO dilutions, 5 μL of kinase/substrate mixture, 5 μL of ATP into 384 well small volume plates. Incubation for 120 minutes at room temperature.Detection step: Addition of 10 μL EDTA & antibody, read plate after 60 minutes. […]
# Leucine-rich repeat serine/threonine-protein kinase 2, sequence (Q5S007 whole entry): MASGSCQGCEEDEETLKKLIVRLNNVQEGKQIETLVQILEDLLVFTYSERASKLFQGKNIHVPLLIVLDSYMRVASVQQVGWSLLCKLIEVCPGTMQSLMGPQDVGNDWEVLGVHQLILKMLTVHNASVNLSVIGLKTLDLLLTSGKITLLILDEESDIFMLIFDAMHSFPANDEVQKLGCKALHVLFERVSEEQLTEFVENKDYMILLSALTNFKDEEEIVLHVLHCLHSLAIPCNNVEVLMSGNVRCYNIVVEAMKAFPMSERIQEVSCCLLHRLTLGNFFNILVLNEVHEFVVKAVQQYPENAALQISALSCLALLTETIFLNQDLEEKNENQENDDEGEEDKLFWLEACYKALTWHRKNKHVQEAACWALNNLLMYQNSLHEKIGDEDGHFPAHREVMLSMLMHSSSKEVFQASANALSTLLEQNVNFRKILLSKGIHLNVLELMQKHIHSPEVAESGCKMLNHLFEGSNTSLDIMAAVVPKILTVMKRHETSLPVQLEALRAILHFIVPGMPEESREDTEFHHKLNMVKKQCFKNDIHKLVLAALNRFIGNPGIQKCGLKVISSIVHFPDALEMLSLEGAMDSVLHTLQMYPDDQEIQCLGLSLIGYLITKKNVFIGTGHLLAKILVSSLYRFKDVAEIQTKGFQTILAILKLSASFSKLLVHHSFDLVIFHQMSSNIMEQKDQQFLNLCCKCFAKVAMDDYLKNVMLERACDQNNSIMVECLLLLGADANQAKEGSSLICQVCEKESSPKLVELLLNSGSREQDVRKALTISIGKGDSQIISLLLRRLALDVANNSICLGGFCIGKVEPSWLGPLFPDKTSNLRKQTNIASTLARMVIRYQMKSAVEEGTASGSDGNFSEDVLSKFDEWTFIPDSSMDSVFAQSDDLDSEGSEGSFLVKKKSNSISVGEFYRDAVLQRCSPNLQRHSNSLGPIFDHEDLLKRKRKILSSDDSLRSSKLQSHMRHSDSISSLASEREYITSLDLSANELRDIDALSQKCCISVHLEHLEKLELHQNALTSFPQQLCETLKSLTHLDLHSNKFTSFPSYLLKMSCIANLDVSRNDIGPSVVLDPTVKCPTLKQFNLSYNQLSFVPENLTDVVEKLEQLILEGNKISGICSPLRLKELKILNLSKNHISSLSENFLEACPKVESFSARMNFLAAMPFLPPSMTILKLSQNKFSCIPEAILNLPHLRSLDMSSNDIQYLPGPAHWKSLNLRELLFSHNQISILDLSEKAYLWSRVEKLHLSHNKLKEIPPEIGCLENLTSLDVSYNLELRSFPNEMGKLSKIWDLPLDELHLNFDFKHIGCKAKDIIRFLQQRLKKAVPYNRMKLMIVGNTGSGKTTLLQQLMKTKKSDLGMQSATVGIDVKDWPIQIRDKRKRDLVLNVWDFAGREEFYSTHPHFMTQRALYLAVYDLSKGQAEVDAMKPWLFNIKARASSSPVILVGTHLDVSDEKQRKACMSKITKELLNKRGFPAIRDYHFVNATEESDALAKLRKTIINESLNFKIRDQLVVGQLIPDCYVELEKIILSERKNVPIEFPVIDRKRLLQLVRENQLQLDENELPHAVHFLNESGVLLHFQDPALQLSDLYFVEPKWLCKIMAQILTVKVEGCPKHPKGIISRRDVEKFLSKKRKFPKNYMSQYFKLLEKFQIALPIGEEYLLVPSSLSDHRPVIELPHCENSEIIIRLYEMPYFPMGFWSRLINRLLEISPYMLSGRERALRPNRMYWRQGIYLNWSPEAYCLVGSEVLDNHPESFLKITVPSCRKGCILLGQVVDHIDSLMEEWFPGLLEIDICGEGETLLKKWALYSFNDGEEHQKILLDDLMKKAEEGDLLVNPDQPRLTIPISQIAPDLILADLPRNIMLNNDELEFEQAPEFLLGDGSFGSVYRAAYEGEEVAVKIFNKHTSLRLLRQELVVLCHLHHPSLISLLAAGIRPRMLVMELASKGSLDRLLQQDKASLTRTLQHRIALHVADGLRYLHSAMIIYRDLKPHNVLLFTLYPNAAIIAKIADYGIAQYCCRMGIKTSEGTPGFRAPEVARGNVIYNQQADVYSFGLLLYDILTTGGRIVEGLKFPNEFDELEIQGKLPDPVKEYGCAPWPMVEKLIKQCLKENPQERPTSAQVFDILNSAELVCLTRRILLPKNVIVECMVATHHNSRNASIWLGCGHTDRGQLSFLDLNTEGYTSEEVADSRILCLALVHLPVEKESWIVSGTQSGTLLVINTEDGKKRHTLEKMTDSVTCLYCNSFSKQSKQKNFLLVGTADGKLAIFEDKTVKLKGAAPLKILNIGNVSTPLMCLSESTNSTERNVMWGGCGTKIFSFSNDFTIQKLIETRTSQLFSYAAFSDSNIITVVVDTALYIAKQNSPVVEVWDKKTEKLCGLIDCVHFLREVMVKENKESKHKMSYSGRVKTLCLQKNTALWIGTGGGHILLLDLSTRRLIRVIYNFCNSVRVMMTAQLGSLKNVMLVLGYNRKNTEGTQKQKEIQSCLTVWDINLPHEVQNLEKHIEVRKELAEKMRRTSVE
smiles,measurement,value
"CNc1nc(Nc2ccc(F)c3[nH]ncc23)ncc1C(F)(F)F [US20240174647, Example 27]",pIC50,> 7.30
